pEC50: −log10 of the molar value.
What was measured:
mu opioid receptor (MOR) [1] = target: T1, mu opioid receptor (MOR) (Homo sapiens, UniProt P35372); test: Hit Hunter cAMP signaling assay (adenylyl cyclase inhibition), PAM mode with EC20 endomorphin-1; format: cell-based; conditions: for cAMP Max. Resp.: maximal response for adenylyl cyclase inhibition
mu opioid receptor (MOR) [2] = target: T1, mu opioid receptor (MOR); test: PathHunter β-arrestin recruitment assay, PAM mode with EC20 endomorphin-1; format: cell-based; conditions: for β-arr Max. Resp.: maximal response for β-arrestin recruitment; for pEC50: β-arrestin recruitment, read-out: β-arr. EC50
Summary of the method: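 β-Arrestin recruitment to the receptor was tracked by chemiluminescent β-galactosidase activity from complementing fragments (ED on receptor, EA on β-arrestin). Per-compound outputs were EC50 and percent maximal response.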

[3] = cAMP EC50, adenylyl cyclase inhibition
[4] = adenylyl cyclase inhibition, read-out: cAMP EC50

T1 sequence (P35372 whole entry): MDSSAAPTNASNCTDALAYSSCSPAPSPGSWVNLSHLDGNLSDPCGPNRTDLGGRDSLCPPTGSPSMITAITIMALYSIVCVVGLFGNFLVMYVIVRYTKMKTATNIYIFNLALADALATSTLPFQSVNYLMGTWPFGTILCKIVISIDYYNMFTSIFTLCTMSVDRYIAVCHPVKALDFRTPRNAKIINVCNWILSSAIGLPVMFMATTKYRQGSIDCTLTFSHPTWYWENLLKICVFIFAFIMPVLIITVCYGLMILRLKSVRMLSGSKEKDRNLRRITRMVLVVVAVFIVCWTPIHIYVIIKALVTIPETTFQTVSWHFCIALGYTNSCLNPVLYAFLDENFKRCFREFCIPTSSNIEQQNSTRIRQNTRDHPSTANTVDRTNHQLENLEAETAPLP

SMILES | pEC50 (mu opioid receptor (MOR) [1]; [3]) | cAMP Max. Resp. (mu opioid receptor (MOR) [1]) | β-arr Max. Resp. (mu opioid receptor (MOR) [2]) | pEC50 (mu opioid receptor (MOR) [2]) | pEC50 (mu opioid receptor (MOR) [1]; [4])
Fc1cncc(C2CCCCN2c2nc(Cl)ncc2F)c1 (centres unmarked) [compound 370] | > 6.15 | D (D represents a maximal response of < 40%) | D (D represents a maximal response of < 40%) | > 6.15 | –
Fc1cnc(Cl)nc1N1CCCCC1c1ccc2c(c1)CCO2 (centres unmarked) [compound 371] | > 6.15 | D (D represents a maximal response of < 40%) | D (D represents a maximal response of < 40%) | > 6.15 | –
Fc1ccc(C2CCCCN2c2nc(Cl)ncc2F)nc1 (centres unmarked) [compound 372] | > 6.15 | D (D represents a maximal response of < 40%) | D (D represents a maximal response of < 40%) | > 6.15 | –
Fc1cnc(Cl)nc1N1CCCCC1c1cccnc1 (centres unmarked) [compound 373] | > 6.15 | D (D represents a maximal response of < 40%) | D (D represents a maximal response of < 40%) | > 6.15 | –
Fc1cnc(Cl)nc1N1CCCCC1c1ccn2nncc2c1 (centres unmarked) [compound 374] | > 6.15 | D (D represents a maximal response of < 40%) | D (D represents a maximal response of < 40%) | > 6.15 | –
Fc1cnccc1C1CCCCN1c1nc(Cl)ncc1F (centres unmarked) [compound 375] | > 6.15 | D (D represents a maximal response of < 40%) | D (D represents a maximal response of < 40%) | > 6.15 | –
Fc1cnc(Cl)nc1N1CCCCC1c1cncc(C(F)(F)F)c1 (centres unmarked) [compound 376] | > 6.15 | D (D represents a maximal response of < 40%) | D (D represents a maximal response of < 40%) | > 6.15 | –
Cc1nccc(C2CCCCN2c2nc(Cl)ncc2F)n1 (centres unmarked) [compound 377] | > 6.15 | D (D represents a maximal response of < 40%) | D (D represents a maximal response of < 40%) | > 6.15 | –
Fc1cnc(Cl)nc1N1CCCCC1c1cncnc1 (centres unmarked) [compound 378] | > 6.15 | D (D represents a maximal response of < 40%) | D (D represents a maximal response of < 40%) | > 6.15 | –
COc1cnc(C2CCCCN2c2nc(Cl)ncc2F)nc1Cl (centres unmarked) [compound 379] | > 6.15 | D (D represents a maximal response of < 40%) | D (D represents a maximal response of < 40%) | > 6.15 | –
COc1ncccc1C1CCCCN1c1nc(Cl)ncc1F (centres unmarked) [compound 380] | > 6.15 | D (D represents a maximal response of < 40%) | D (D represents a maximal response of < 40%) | > 6.15 | –
Cc1nccc(C2CCCCN2c2nc(Cl)ccc2F)n1 (centres unmarked) [compound 381] | – | D (D represents a maximal response of < 40%) | D (D represents a maximal response of < 40%) | > 6.15 | > 6.15
Fc1ccc(Cl)nc1N1CCCCC1c1cncnc1 (centres unmarked) [compound 382] | > 6.15 | D (D represents a maximal response of < 40%) | D (D represents a maximal response of < 40%) | > 6.15 | –
Fc1ccc(Cl)nc1C1CCCCN1c1nc(Cl)ncc1F (centres unmarked) [compound 388] | > 6.15 | D (D represents a maximal response of < 40%) | D (D represents a maximal response of < 40%) | > 6.15 | –
Fc1cnc(Cl)nc1N1CCCCC1c1cccc2ncnn12 (centres unmarked) [compound 389] | > 6.15 | D (D represents a maximal response of < 40%) | D (D represents a maximal response of < 40%) | > 6.15 | –
Fc1cnc(Cl)nc1N1CCCCC1c1cc(Cl)cnc1F (centres unmarked) [compound 390] | > 6.15 | D (D represents a maximal response of < 40%) | D (D represents a maximal response of < 40%) | > 6.15 | –

SMILES | pEC50 (mu opioid receptor (MOR) [1]; [3]) | cAMP Max. Resp. (mu opioid receptor (MOR) [1]) | β-arr Max. Resp. (mu opioid receptor (MOR) [2]) | pEC50 (mu opioid receptor (MOR) [2]) | pEC50 (mu opioid receptor (MOR) [1]; [4])
Fc1cnc(Cl)nc1N1CCCCC1c1ccncn1 (centres unmarked) [compound 391] | > 6.15 | D (D represents a maximal response of < 40%) | D (D represents a maximal response of < 40%) | > 6.15 | –
Cc1ncc(Cl)c(C2CCCCN2c2nc(Cl)ncc2F)n1 (centres unmarked) [compound 392] | > 6.15 | D (D represents a maximal response of < 40%) | D (D represents a maximal response of < 40%) | > 6.15 | –
Oc1cnc2ccc(C3CCCCN3c3nc(Cl)ncc3F)cc2c1 (centres unmarked) [compound 393] | > 6.15 | D (D represents a maximal response of < 40%) | D (D represents a maximal response of < 40%) | > 6.15 | –
Fc1ccc(Cl)nc1N1CCCCC1c1cncc(Cl)n1 (centres unmarked) [compound 395] | – | D (D represents a maximal response of < 40%) | D (D represents a maximal response of < 40%) | > 6.15 | > 6.15
Cc1nccc(N2CCCCC2c2cncc(Cl)n2)n1 (centres unmarked) [compound 396] | > 6.15 | D (D represents a maximal response of < 40%) | D (D represents a maximal response of < 40%) | > 6.15 | –
Fc1ccc(Cl)cc1C1CCCCN1c1nc(Cl)ncc1F (centres unmarked) [compound 400] | > 6.15 | D (D represents a maximal response of < 40%) | D (D represents a maximal response of < 40%) | > 6.15 | –
Oc1nccc(N2CCCCC2c2cccc(C(F)(F)F)c2)n1 (centres unmarked) [compound 401] | > 6.15 | D (D represents a maximal response of < 40%) | D (D represents a maximal response of < 40%) | > 6.15 | –
Fc1c(N2CCCCC2c2cccc(C(F)(F)F)c2)ccnc1Cl (centres unmarked) [compound 402] | > 6.15 | D (D represents a maximal response of < 40%) | D (D represents a maximal response of < 40%) | > 6.15 | –
Fc1ccc(C(F)(F)F)cc1C1CCCCN1c1ccnc(Cl)n1 (centres unmarked) [compound 403] | > 6.15 | D (D represents a maximal response of < 40%) | D (D represents a maximal response of < 40%) | > 6.15 | –
Fc1c(Cl)cccc1C1CCCCN1c1ccnc(Cl)n1 (centres unmarked) [compound 405] | > 6.15 | D (D represents a maximal response of < 40%) | D (D represents a maximal response of < 40%) | > 6.15 | –
Fc1ccc(Cl)cc1C1CCCCN1c1ccnc(Cl)n1 (centres unmarked) [compound 406] | > 6.15 | D (D represents a maximal response of < 40%) | D (D represents a maximal response of < 40%) | > 6.15 | –
Cc1ncccc1C1CCCCN1c1nc(Cl)ncc1F (centres unmarked) [compound 407] | > 6.15 | D (D represents a maximal response of < 40%) | D (D represents a maximal response of < 40%) | > 6.15 | –
Fc1cnc(Cl)nc1N1CCCCC1c1cc(Cl)ccn1 (centres unmarked) [compound 408] | > 6.15 | D (D represents a maximal response of < 40%) | D (D represents a maximal response of < 40%) | > 6.15 | –
Cc1nc(C2CCCCN2c2nc(Cl)ncc2F)no1 (centres unmarked) [compound 409] | > 6.15 | D (D represents a maximal response of < 40%) | D (D represents a maximal response of < 40%) | > 6.15 | –
Fc1cnc(Cl)nc1N1CCCCC1c1ccnc(C(F)(F)F)c1 (centres unmarked) [compound 410] | > 6.15 | D (D represents a maximal response of < 40%) | D (D represents a maximal response of < 40%) | > 6.15 | –
Cc1ccc(C2CCCCN2c2nc(Cl)ncc2F)cn1 (centres unmarked) [compound 411] | > 6.15 | D (D represents a maximal response of < 40%) | D (D represents a maximal response of < 40%) | > 6.15 | –

Source: US11071731B2, “Allosteric modulators of the mu opioid receptor” (Chiromics, LLC, priority 2017, dated 2021)
